Experimental data: ChEMBL document CHEMBL1126591, “Dibenz[b,e]oxepin derivatives: novel antiallergic agents possessing thromboxane A2 and histamine H1 dual antagonizing activity. 1” (J Med Chem, 1993)
Values belong to the molecule of their own block, whether it stands above or below them. Active and inactive are the calls of the source. The rule behind the calls is not given here.

Legend:
[1] = target: Histamine H1 receptor (Cavia porcellus) (UniProt P31389); test: Inhibitory effect on the specific binding of [3H]pyrilamine to guinea pig cerebellum histamine H1 receptor at 1 uM; type: tissue-based
Histamine H1 receptor (Cavia porcellus), sequence (P31389 whole entry): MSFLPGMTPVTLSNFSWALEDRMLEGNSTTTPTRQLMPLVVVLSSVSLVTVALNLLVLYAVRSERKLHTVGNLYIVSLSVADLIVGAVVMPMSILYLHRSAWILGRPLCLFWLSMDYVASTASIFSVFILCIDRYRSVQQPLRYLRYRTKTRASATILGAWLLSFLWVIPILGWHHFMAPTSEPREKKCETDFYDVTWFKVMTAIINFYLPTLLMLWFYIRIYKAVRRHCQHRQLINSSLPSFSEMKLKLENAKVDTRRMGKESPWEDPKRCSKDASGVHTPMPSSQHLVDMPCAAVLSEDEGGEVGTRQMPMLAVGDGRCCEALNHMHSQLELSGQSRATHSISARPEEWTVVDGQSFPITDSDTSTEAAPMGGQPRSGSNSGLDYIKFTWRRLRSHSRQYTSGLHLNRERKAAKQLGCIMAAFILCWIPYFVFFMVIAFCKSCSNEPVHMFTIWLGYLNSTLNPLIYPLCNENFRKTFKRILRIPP

Rattus norvegicus [2] = test: Compound concentration inhibiting 48 hr homologous passive cutaneous Anaphylaxis in rats peroral administration; No efficacy; type: functional, organism-based
[3] = Affinity for TXA2 / PGH-2 receptors in guinea pig platelets, by inhibition of [3H]U-46619 binding
Histamine H1 receptor = Histamine H1 receptor (Cavia porcellus, UniProt P31389); test: Inhibition of the specific binding of [3H]pyrilamine to guinea pig cerebellum histamine H1 receptor; type: tissue-based
Histamine H1 receptor, sequence (P31389 whole entry): as above

Rattus norvegicus [4] = test: Compound concentration inhibiting 48 hr homologous passive cutaneous Anaphylaxis in rats peroral administration; type: functional; conditions: po
Cavia porcellus = organism: Cavia porcellus; test: Inhibitory effect on the specific binding of [3H]U-46619 to guinea pig platelets TXA2/PGH2 receptors at 1 uM
[5] = Inhibition of prostaglandin I2 receptor binding at a concentration of 10 uM; Showed negligible activities
[6] = target: Platelet-activating factor receptor (Homo sapiens, UniProt P25105); test: Inhibition of platelet-activating factor binding at a concentration of 10 uM; Showed negligible activities
Platelet-activating factor receptor, sequence (P25105 whole entry): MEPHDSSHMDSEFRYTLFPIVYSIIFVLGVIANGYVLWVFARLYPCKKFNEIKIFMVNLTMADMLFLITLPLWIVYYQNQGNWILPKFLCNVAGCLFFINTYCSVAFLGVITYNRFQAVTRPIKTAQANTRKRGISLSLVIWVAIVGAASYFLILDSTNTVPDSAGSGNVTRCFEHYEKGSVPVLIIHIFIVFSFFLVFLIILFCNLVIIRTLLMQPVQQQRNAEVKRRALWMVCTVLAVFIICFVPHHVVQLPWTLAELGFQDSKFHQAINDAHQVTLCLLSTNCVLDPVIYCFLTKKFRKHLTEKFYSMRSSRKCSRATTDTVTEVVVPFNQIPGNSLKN

[7] = target: T1, Muscarinic acetylcholine receptor M1 (Homo sapiens, UniProt P11229); test: Inhibition of muscarinic-1 receptor binding at a concentration of 10 uM; Showed negligible activities
T1 sequence (P11229 whole entry): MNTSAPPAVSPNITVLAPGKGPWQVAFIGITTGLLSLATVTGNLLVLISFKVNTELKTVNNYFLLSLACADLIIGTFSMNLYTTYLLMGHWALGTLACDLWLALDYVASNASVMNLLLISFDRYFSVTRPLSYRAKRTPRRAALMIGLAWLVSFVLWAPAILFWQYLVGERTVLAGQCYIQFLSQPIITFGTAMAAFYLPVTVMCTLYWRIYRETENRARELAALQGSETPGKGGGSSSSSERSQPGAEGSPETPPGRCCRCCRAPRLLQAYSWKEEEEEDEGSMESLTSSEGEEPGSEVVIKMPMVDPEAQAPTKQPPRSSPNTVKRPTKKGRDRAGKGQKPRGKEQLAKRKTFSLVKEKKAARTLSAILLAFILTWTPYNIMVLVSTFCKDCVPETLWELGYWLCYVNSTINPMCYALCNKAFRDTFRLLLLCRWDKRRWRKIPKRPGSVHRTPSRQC

Histamine H2 receptor = Histamine H2 receptor (Rattus norvegicus, UniProt P25102); test: Inhibition of H2 histamine receptor binding at a concentration of 10 uM; Showed negligible activities
Histamine H2 receptor, sequence (P25102 whole entry): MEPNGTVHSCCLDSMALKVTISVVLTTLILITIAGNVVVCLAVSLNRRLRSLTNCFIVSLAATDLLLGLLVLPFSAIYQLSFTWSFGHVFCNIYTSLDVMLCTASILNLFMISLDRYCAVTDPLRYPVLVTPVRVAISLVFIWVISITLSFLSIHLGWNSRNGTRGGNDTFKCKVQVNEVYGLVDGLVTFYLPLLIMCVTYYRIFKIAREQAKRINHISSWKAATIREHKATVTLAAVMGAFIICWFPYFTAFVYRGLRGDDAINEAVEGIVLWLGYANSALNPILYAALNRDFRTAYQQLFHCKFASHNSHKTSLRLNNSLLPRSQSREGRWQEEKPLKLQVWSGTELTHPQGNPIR

[8] = test system: Alpha-1 adrenergic receptor (Rattus norvegicus); test: Inhibition of alpha-1 adrenergic receptor binding at a concentration of 10 uM; Showed negligible activities
[9] = test system: Alpha-2 adrenergic receptor (Rattus norvegicus); test: Inhibition of alpha-2 adrenergic receptor binding at a concentration of 10 uM; Showed negligible activities
[10] = Lethal concentration in 50% rats peroral administration of compound; type: ADME, organism-based; conditions: rat, in vivo, po
D(2) dopamine receptor = D(2) dopamine receptor (Rattus norvegicus, UniProt P61169); test: Inhibition of dopamine receptor binding at a concentration of 10 uM; Showed negligible activities
D(2) dopamine receptor, sequence (P61169 whole entry): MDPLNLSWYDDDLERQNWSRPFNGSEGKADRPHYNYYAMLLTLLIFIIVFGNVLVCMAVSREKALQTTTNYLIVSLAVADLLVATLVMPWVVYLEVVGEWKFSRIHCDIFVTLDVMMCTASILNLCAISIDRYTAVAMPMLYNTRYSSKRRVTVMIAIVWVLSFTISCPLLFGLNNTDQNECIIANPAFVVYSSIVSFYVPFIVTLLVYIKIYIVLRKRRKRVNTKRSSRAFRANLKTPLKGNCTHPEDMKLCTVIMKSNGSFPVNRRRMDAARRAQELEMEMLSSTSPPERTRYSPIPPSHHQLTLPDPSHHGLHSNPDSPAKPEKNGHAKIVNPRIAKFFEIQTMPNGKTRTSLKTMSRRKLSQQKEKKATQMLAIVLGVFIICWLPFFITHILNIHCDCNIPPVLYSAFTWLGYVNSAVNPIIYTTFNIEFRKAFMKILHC

[11] = target: 5-hydroxytryptamine receptor 5B (Rattus norvegicus, UniProt P35365); test: Inhibition of serotonin receptor binding at a concentration of 10 uM; Showed negligible activities
5-hydroxytryptamine receptor 5B, sequence (P35365 whole entry): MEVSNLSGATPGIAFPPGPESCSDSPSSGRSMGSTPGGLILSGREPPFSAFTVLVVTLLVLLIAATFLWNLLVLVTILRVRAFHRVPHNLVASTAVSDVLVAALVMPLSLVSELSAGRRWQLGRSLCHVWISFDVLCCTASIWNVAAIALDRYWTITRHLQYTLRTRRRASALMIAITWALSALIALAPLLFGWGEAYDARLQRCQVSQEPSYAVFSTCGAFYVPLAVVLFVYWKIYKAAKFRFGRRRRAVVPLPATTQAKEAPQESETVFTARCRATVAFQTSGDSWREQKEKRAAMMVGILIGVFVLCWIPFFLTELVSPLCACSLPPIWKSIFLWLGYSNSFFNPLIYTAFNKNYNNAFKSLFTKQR

[12] = target: T2, Prostaglandin E2 receptor EP3 subtype (Homo sapiens, UniProt P43115); test: Inhibition of prostaglandin E2 receptor binding at a concentration of 10 uM; Showed negligible activities
T2 sequence (P43115 whole entry): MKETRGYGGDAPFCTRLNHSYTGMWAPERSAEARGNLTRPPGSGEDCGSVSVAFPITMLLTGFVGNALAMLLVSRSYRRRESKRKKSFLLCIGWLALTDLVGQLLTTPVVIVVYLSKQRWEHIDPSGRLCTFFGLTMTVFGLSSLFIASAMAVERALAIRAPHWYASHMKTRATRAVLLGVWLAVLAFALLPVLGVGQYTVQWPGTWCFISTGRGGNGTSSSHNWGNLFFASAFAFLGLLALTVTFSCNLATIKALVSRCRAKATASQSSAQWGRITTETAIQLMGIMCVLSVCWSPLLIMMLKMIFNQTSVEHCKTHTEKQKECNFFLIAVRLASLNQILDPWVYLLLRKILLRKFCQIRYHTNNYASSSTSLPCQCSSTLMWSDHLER

inhibition [1]: 0%
SMILES: O=C(O)COc1ccc(CCNS(=O)(=O)c2ccccc2)cc1 [SULOTROBAN]
ED50 (Rattus norvegicus [2]): inactive

SMILES: O=C(O)c1ccc2c(c1)C(SCCN1CCc3ccccc3C1)c1ccccc1CO2 (centres undefined)
Ki [3]: 240 nM
Ki (Histamine H1 receptor): 6.9 nM

SMILES: O=C(O)c1ccc2c(c1)C(SCCN1CCN(c3ccc(F)cc3)CC1)c1ccccc1CO2 (centres undefined)
Ki [3]: 400 nM
Ki (Histamine H1 receptor): 41 nM

SMILES: O=C(O)c1ccc2c(c1)C(SCCN1CCOCC1)c1ccccc1CO2 (centres undefined)
Ki [3]: 1900 nM
Ki (Histamine H1 receptor): 42 nM

SMILES: O=C(O)CCc1ccc2c(c1)C(SCCN1CCC(Cc3ccccc3)CC1)c1ccccc1CO2 (centres undefined)
Ki [3]: 340 nM
Ki (Histamine H1 receptor): 12 nM

SMILES: CN(C)CCSC1c2ccccc2COc2ccc(C(=O)O)cc21 (centres undefined)
ED50 (Rattus norvegicus [4]): 0.92 mg/kg
inhibition (Cavia porcellus): 18%
Ki (Histamine H1 receptor): 9 nM

inhibition [1]: 3%
SMILES: O=C(O)c1ccc2c(c1)/C(=C/CN1CCN(c3ccc(F)cc3)CC1)c1ccccc1CO2
Ki [3]: 2300 nM

SMILES: O=C(O)c1ccc2c(c1)C(SCCN1CCC(Cc3ccccc3)CC1)c1ccccc1CO2 (racemic)
Ki [3]: 140 nM
Ki (Histamine H1 receptor): 18 nM

SMILES: O=C(O)c1ccc2c(c1)C(SCCN1CCC(n3c(O)nc4ccccc43)CC1)c1ccccc1CO2 (centres undefined)
Ki [3]: 130 nM
Ki (Histamine H1 receptor): 500 nM

SMILES: CC(C)(C(=O)O)c1ccc2c(c1)C(SCCN1CCC(Cc3ccccc3)CC1)c1ccccc1CO2 (centres undefined)
Ki [3]: 1600 nM
Ki (Histamine H1 receptor): 17 nM

SMILES: O=C(O)c1ccc2c(c1)C(SCCN1CCN(Cc3ccccc3)CC1)c1ccccc1CO2 (centres undefined)
Ki [3]: 490 nM
Ki (Histamine H1 receptor): 14 nM

SMILES: O=C(O)c1ccc2c(c1)C(SCCN1CCC(c3ccccc3)CC1)c1ccccc1CO2 (centres undefined)
Ki [3]: 990 nM
Ki (Histamine H1 receptor): 20 nM

SMILES: O=C(O)c1ccc2c(c1)C(SCCNS(=O)(=O)c1ccccc1)c1ccccc1CO2 (centres undefined)
inhibition [1]: 0%
Ki [3]: 32 nM

Ki (Histamine H1 receptor): 15 nM
SMILES: O=C(O)Cc1ccc2c(c1)/C(=C\CN1CCC(Cc3ccccc3)CC1)c1ccccc1CO2
Ki [3]: 2600 nM

SMILES: O=C(O)c1ccc2c(c1)C(SCCN1CCC(Cc3ccccc3)CC1)c1ccccc1CO2 (stereo in doubt; (-)12)
Ki [3]: 42 nM
Ki (Histamine H1 receptor): 740 nM

SMILES: CN(C)C/C=C1\c2ccccc2COc2ccc(CC(=O)O)cc21
Ki [3]: > 1000 nM
ED50 (Rattus norvegicus [4]): 0.077 mg/kg

SMILES: O=C(O)Cc1ccc2c(c1)/C(=C/CN1CCC(Cc3ccccc3)CC1)c1ccccc1CO2
Ki [5]: Not Active
Ki [6]: Not Active
Ki [7]: Not Active
Ki (Histamine H2 receptor): Not Active
Ki [8]: Not Active
Ki [9]: Not Active
Ki [3]: 740 nM
LD50 [10]: > 1000 mg/kg
Ki (D(2) dopamine receptor): Not Active
ED50 (Rattus norvegicus [4]): 0.73 mg/kg
Ki [11]: Not Active
Ki [12]: Not Active
Ki (Histamine H1 receptor): 20 nM

SMILES: O=C(O)c1ccc2c(c1)/C(=C/Cn1cnc3ccccc31)c1ccccc1CO2
Ki [3]: 15 nM

SMILES: CN1CCC(=C2c3ccccc3CC(=O)c3sccc32)CC1 [KETOTIFEN]
ED50 (Rattus norvegicus [4]): 4.8 mg/kg

SMILES: O=C(O)c1ccc2c(c1)C(SCCN1CCN(c3ccccc3)CC1)c1ccccc1CO2 (centres undefined)
Ki [3]: 210 nM
Ki (Histamine H1 receptor): 47 nM

SMILES: O=C(O)c1ccc2c(c1)C(SCCN1CCC(Cc3ccccc3)CC1)c1ccccc1CO2 (stereo in doubt; (+)12)
Ki [3]: 14000 nM
Ki (Histamine H1 receptor): 9.9 nM

SMILES: O=C(O)Cc1ccc2c(c1)C(SCCN1CCC(Cc3ccccc3)CC1)c1ccccc1CO2 (centres undefined)
Ki [3]: 430 nM
Ki (Histamine H1 receptor): 10 nM
